From paper PMC6222759, “Chemical Constituents from Scindapsus officinalis (Roxb.) Schott. and Their Anti–Inflammatory Activities” (Molecules : A Journal of Synthetic Chemistry and Natural …, 2018) come the findings set out here.

The test system of series [1] is NO production in LPS-induced Raw 264.7 cells. In words: Anti-inflammatory activity assay against NO production (Griess) in LPS-stimulated RAW 264.7 macrophages. The class given is cell-based, mouse. The settings on record: for IC50: Mus musculus, RAW264.7, LPS (1.0 μg/mL)-induced Raw 264.7 cells, 2 h pre-incubation, 24 h stimulation, mean ± SD, n = 3, read-out: IC50 NO (inhibitory effect on NO production); for Anti-inflammatory activity against nitric oxide production (in words): LPS-induced Raw 264.7 cells, compared with positive control dexamethasone. As for the experimental part: (Raw 264.7 cells were subjected to compounds 3 and 7 with six different concentrations and incubated for 2 h firstly, and then stimulated by adding LPS for 24 h. Then, Griess reagents I and II were added to cell supernatants to detect the NO production levels. The cytotoxicity against macrophage Raw 264.7 cells of compounds 3 and 7 were investigated using the MTT method; NO: Inhibition rates of NO release (%); MTT: Inhibition rates of cell viability (%)).
The anti-inflammatory activity assay against NO production in RAW 264.7 mouse peritoneal macrophages was conducted mainly using the procedures described previously. […] After being stimulated for 24 h, 50 μL of cell supernatants were taken out from each well and mixed with an equal volume of Griess reagents I and II to detect the NO production levels by measuring absorbance at 570 nm. All experiments were performed in triplicate. The NO inhibition is calculated as the percentage reduction of LPS stimulation.
On the technique in general: The Griess reaction detects nitrite, a stable product of nitric oxide.

Series [2] is described as follows: Cytotoxicity against macrophage Raw 264.7 cells (MTT assay). The settings on record: mouse. On the procedure:
(§1) The cytotoxicity against macrophage Raw 264.7 cells was investigated using the MTT assay. Briefly, after the Raw 264.7 cells were treated with the test compounds for 24 h, 50 μL of MTT (5 mg/mL) was added to each well, and the cells were incubated for an additional 4 h. After the formazan crystals formed, cell supernatants were removed and 100 μL of DMSO was added to dissolve the crystals. Absorbance for each well was analyzed in the same way as that for NO inhibition assay.

The subject of series [3] is macrophage Raw 264.7 cells. Described as above. The settings on record: MTT method; concentration of 20 μM. As for the experimental part: as §1
(Tetrazolium assays rely on reduction of a dye to a coloured formazan, in cell work by metabolically active cells.)

Usually IC50 stands for the concentration needed to halve the response being measured. In general, inhibition refers to the drop in the measured response relative to a control, in per cent. As for `CC(C)=C[C@@H]1CC=C[C@]1(C)OC1O[C@H](CO)[C@@H](O)[C@H](O)[C@H]1O` (relative stereo) [Compound 1, (rel)-(1R, 5R)-1-Methyl-5-(2-methylprop-1-en-1-yl)cyclopent-2-en-1-O-β-D-glucopyranoside], in series [1], the IC50 is more than 100 µM. For the same compound, the inhibition at 24 h, 20 µM in series [2] (Raw 264.7 macrophage cells) came out at 1.8%.

For the compound `C=CCc1ccc(OC2O[C@H](CO)[C@@H](O[C@H]3[C@H](O)[C@@H](O)[C@H](OCC4(CC)CC4)O[C@@H]3CO)[C@H](O)[C@H]2O)c(OC)c1` (stereo partly drawn) [Compound 2, 2-Methoxy-4-(prop-2-enyl)-1″-(1-ethylcyclopropyl) methanol phenyl O-β-D-glucopyranosyl-(4→4)-β-D-glucopyranoside], the IC50 in series [1] is more than 100 µM. For the same compound, in series [2] (Raw 264.7 macrophage cells), the inhibition at 24 h, 20 µM was -0.5%.

In the case of `COC(=O)/C=C1/C[C@H](O)[C@H](OC(=O)C=Cc2ccc(O)c(O)c2)[C@H]1O` [Compound 3, (Z)-(1S,2S,5S)-2,5-Dihydroxy-3-(2-methoxy-2-oxoethylidene)cyclopentyl 3-(3,4-dihydroxyphenyl) acrylate], in series [1], the “Anti-inflammatory activity against nitric oxide production (in words)” value is on record as “moderate inhibitory effects” and the IC50 came out at 12.2 ± 0.8 µM. For the same compound, the inhibition at 24 h, 20 µM in series [2] (Raw 264.7 macrophage cells) came out at 4.7%. For the same compound, the “Cell toxicity against macrophage Raw 264.7 cells (in words)” value in series [3] was “neither showed any cell toxicity”.

In the case of `O=C(O)/C=C/c1ccc(O)c(O)c1` [Compound 4, caffeic acid], the IC50 in series [1] is more than 100 µM. In addition, the inhibition at 24 h, 20 µM in series [2] stood at 1.1%.

Take `OC[C@H]1O[C@@H](OCCc2ccccc2)[C@H](O)[C@@H](O)[C@@H]1O` [Compound 5, 2-phenylethyl β-D-Glucopyranoside]: in series [1], the IC50 is more than 100 µM. Besides, the inhibition at 24 h, 20 µM in series [2] (Raw 264.7 macrophage cells) is 4.5%.

In the case of `CCCCCCOC1O[C@H](CO)[C@@H](O)[C@H](O)[C@H]1O` (stereo partly drawn) [Compound 6, hexyl-O-β-D-Glucopyranoside], the IC50 in series [1] is more than 100 µM. Besides, the inhibition at 24 h, 20 µM in series [2] (Raw 264.7 macrophage cells) amounted to 1.2%.

Consider `COC(=O)c1cc(O)c(O)c(O)c1` [Compound 7, methyl gallate], for which, in series [1], the “Anti-inflammatory activity against nitric oxide production (in words)” value was “moderate inhibitory effects” and the IC50 came to 18.9 ± 0.3 µM. The inhibition at 24 h, 20 µM in series [2] worked out at 2.4%. For the same compound, the “Cell toxicity against macrophage Raw 264.7 cells (in words)” value in series [3] is recorded as “neither showed any cell toxicity”.

As to `C[C@@H]1C[C@H]2[C@@H]3CCC4=CC(=O)C=C[C@]4(C)[C@@]3(F)[C@@H](O)C[C@]2(C)[C@@]1(O)C(=O)CO` [Dexamethasone, dexamethasone, reference compound], the IC50 in series [1] stood at 2.2 ± 0.02 µM.
